A melting point compilation (Tetko et al.; mined from patent text by program, amines drawn as free bases though some values may be those of a salt)

SMILES | melting point
COC(=O)Cn1nnnc1-c1cccc(C#N)c1 | 67 to 69 °C
COc1cc(Nc2c(C#N)cnc3c2C=C2N=C(NCCN4CCOCC4)N=C2C3)cc(OC)c1OC | 175 to 178 °C
CC(C)C1(C)CC(O)C2(C)CCC3c4ccc(O)cc4CCC3C12 (stereo not given) | 201 to 205 °C
O=C(Nc1ccc(-n2nc(C(F)(F)F)cc2C(F)(F)F)cc1)c1sccc1Br | 139 to 140 °C
Cc1snc(O)c1C#N | 205 °C
CC(C)(C)OC(=O)CN1CCSC1=NC#N | 143 to 144 °C
C(=C\c1nc(COc2cccc(CCCn3ccnc3)c2)co1)/c1ccccc1 | 86 to 87 °C
O=c1nc(-c2ccccc2)c2cc([N+](=O)[O-])ccc2n1CC12CC3CC(CC(C3)C1)C2 | 228 to 231 °C
C(=C\c1ncno1)/c1ccccc1 | 53 to 55 °C
CCCCOCCCCCCCCCCC(=O)O | 29 to 30.5 °C
O=C(Nc1cccc(S(=O)(=O)CCO)c1)c1cnn2c(C(F)F)cc(-c3ccc(C(F)(F)F)cc3)nc12 | 205 °C
N#CCNS(=O)(=O)c1ccccc1 | 81 to 83 °C
COc1cccc2c1nc(C(F)F)n2-c1nc(Nc2ccc(N(C)S(C)(=O)=O)nc2)nc(N2CCOCC2)n1 | 250 to 253 °C
S=C(N/N=C/c1cccnc1)Nc1ccccc1 | 208 to 210 °C
COc1ccc(C(Cc2ccccc2)C2=C(C)N=NC2=O)cc1OC1CCCC1 (stereo not given) | 88 to 90 °C
COc1cc(Nc2nccc(Nc3cccc(C)c3S(N)(=O)=O)n2)cc(OC)c1OC | 72 to 75 °C
CCOC(=O)c1c(C)c(C(=O)C(C#N)C(=O)Nc2ccccc2)n(C)c1C (stereo not given) | 164 to 166 °C
N#CC1CN1C(=O)NC(=O)c1ccc2c(c1)CCCC2 (stereo not given) | 166 to 168 °C
CC(Nc1c(-c2ccc(C#N)cc2)c(=O)c1=O)C(C)(C)C (stereo not given) | 192 to 194 °C
O=C(c1ccccc1)c1cc([N+](=O)[O-])ccc1NC1CCCC1 | 95 °C
COc1cc(Oc2cc(C(F)(F)F)nn2C)nc(Oc2cc(C(F)(F)F)nn2C)c1 | 107 °C
Cc1nc(C)c(-c2ccc(C#N)cc2)s1 | 108 to 110 °C
CN1C(=O)CN=C(c2ccccc2F)c2c1cc(Cl)c(N)c2Cl | 234 °C
CCN(CC)c1ccc(CN2C(=O)C(C)(c3ccccc3Cl)c3cc(Cl)ccc32)c(OC)c1 (stereo not given) | 198 °C

SMILES | melting point
Cc1nc(O)sc1-c1cn2cccnc2n1 | > 300 °C
CN(C)C1CCCC(C(=O)N2CCC(c3[nH]nc4c3C(=O)c3c(NC(=O)NN5CCOCC5)cccc3-4)CC2)C1 (stereo not given) | 153 to 155 °C
CCOC(=O)CC1c2cccn2S(=O)(=O)c2ccccc2N1C(=O)c1ccccc1 (stereo not given) | 178 to 181 °C
CCOC(=O)C(C)OCc1cc2nc(Cl)ccc2n1S(=O)(=O)c1ccc2nc(N)sc2c1 (stereo not given) | 86 to 88 °C
CC(C)(C)C(=O)Nc1ccncc1-c1noc2ccccc12 | 137 to 138 °C
OC(C=CCN1CCC(O)(c2ccc(Cl)cc2)CC1)c1ccc(F)cc1 (stereo not given) | 126 to 127 °C
O=C(Nc1ccc(N2CC3CC3C2)nc1)c1cc2cc(F)cnc2n1Cc1cccc(F)c1 (stereo not given) | 222 to 224 °C
C=CCc1cn(C(c2ccccc2)(c2ccccc2)c2ccccc2)c(F)n1 | 136 to 138 °C
N#Cc1cn(-c2ccc(Cl)cc2)c(=O)[nH]c1=O | 236 to 239 °C
CNC(=O)c1cc(F)c(Cl)cc1F | 128 °C
Cc1nc(-c2cccc(C(=O)Nc3ccc(Cl)cc3)c2)sc1C(=O)O | 246 to 248 °C
CC(Sc1ccc(NC(=O)NC(=O)c2ccccc2Cl)cc1)c1ccccc1 (stereo not given) | 226 °C
NCc1ccccc1CC(=O)O | 151 to 155 °C
O=C(OCc1ccccn1)c1cccc(-n2cnc3cc(-c4ccccc4)ccc32)c1 | 149 to 150 °C
C=C1SC(=O)N(c2ccc3cc(-c4ccc(OC)c(C56CC7CC(CC(C7)C5)C6)c4)ccc3c2)C1=O | 286 to 287 °C
Oc1ccc2c(-c3cccnc3)coc2c1 | 167 to 168 °C
CCCCCCc1cc2c(s1)-n1c(C)nnc1CN=C2c1ccc(C)cc1 | 74 to 76 °C
CCCCCCCCCCCCCCCCC(O)CBr (stereo not given) | 53.5 to 54.5 °C
Nc1ccc(Cl)cc1C(=O)c1c(F)cccc1F | 103 to 105 °C
NC(=O)NN=C(CCl)COc1ccc(Cl)cn1 | 115 to 117 °C
Cc1ccc(-c2ccc3c(c2)C=C(C(=O)Nc2ccc(CN(C)C4CCOCC4)cc2)CCN3C)cc1 | 178 to 181 °C
O=C(CNc1ccc2[nH]c(=O)[nH]c2c1)N1CCC(Cc2ccc(F)cc2)CC1 | 85 to 87 °C
O=C(O)C(=O)Nc1cccc([N+](=O)[O-])c1 | > 270 °C
N#Cc1c2ccccc2c(C=O)c2ccccc12 | 270 to 275 °C

SMILES | melting point
CC1CCc2c(c(OCc3ccccn3)nn3c(-c4ccccc4)nnc23)C1 (stereo not given) | 152 to 154 °C
Fc1ccc(C(OCCN2CCN(C(c3ccc(F)cc3)c3ccc(F)cc3)CC2)c2ccc(F)cc2)cc1 | 87 to 88 °C
COC(=O)C(CC(C)C)NC(=O)C(C)NC(=O)OCc1ccccc1 (stereo not given) | 65 to 68 °C
NC(=O)C1CCN(Cc2cnc3cc(NC(=O)c4ccc(-c5ccc(Cl)cc5)cc4)ccc3c2)CC1 | 260 °C
O=C(c1cc(=O)c2cc(O)ccc2[nH]1)N1CCC(O)(Cc2ccccc2)CC1 | 178 °C
Cc1ccc2c(c1)oc1c(C(=O)NC3CCCCC3)nn(-c3ccc(Cl)cc3Cl)c12 | 140 to 142 °C
CC(n1ncnn1)C(O)(c1ccc(Cl)cc1)c1ccc(C(F)(F)F)cc1 (stereo not given) | 123 to 125 °C
CCc1cc(OCc2ccc(-c3ccccc3-c3nnnn3-c3ccncc3)cc2)c2ccccc2n1 | 155 to 170 °C
Cc1sc(-c2ccccc2)nc1COc1cc(COc2ncccc2CC#N)on1 | 103 to 104 °C
NCC1(O)c2ccccc2CCc2ccccc21 | 147 to 149 °C
COC(=O)c1c(C(=O)OC)c(-c2ccc(OC)c(OC)c2)c2cc3c(cc2c1O)OCO3 | 158 to 159 °C
O=C(O)c1ccc(NC(=O)c2ccc(Br)nc2)nc1 | 270 to 272 °C
COc1ccc(C(=O)Nc2c(Cl)cncc2Cl)c2cc(C(=O)N3CCN(C)CC3)oc12 | 224 to 225 °C
Cc1ccc(C(=Cc2nnnn2C)c2ccc(C)cc2F)c(F)c1 | 58 to 60 °C
O=C(O)Cc1c(Cl)nc(-c2ccccc2)n1Cc1ccccc1 | 161 to 163 °C
Oc1ccc(Cl)cc1-n1c(=S)[nH]c2cc(C(F)(F)F)ccc21 | 248 to 250 °C
COC(=O)[C@H](Cc1ccc(CC(=O)O)cc1)NC(=O)OC(C)(C)C | 141 to 143 °C
O=C1c2cc(Cl)c(Cl)cc2C(=O)c2c1c(Cl)c1cc(Cl)c(Cl)cc1c2Cl | > 260 °C
CCOC(=O)CSc1nc(Cl)cc(Nc2ccc(-c3ccccc3)cc2)n1 | 110 to 112 °C
Cc1c(N)cc(C(C)(C)C)cc1N | 97.3 °C
CNC(=S)NS(=O)(=O)c1cc(CCNC(=O)c2cc(Cl)ccc2OC)ccc1OC | 190 to 193 °C
O=C(Nc1ccc(Cl)nc1)c1cccc(Cl)c1 | 227 to 229 °C

Continued, values first:

melting point | SMILES
162 °C | CCOC(=O)N1CCC(NC(=S)Nc2cc(Cl)ccc2NCc2ccccc2)CC1
158 to 160 °C | CN1CC(NCc2ccccc2)=Nc2ccc(Cl)cc2C1=O
195 to 203 °C | CC(C)NC1=NS(=O)(=O)c2ccc(CC#N)cc2N1
187 to 188 °C | Nc1c2c(nc3c(O)cccc13)CCC2
145 to 147 °C | C#CCOc1nc(N)nc(-c2ccccc2)c1-c1ccc(=O)n(C(C)C)n1
195 to 196 °C | Oc1ccc2c(c1)SCCc1c-2n(CCCCCN2CCCCC2)c2ccc(O)cc12
138 °C | Nc1ccc2c(c1)C(=O)N(CCO)CCO2
107 to 111 °C | CC(=O)Oc1cc(S(=O)(=O)c2ccccc2)ccc1OCc1ccccc1
193 °C | CC1(C)C(=O)N(C(=O)NCC2CCN(CC3(C(=O)O)CCC3)CC2)c2cc(F)ccc21
127 to 129 °C | CCOc1ccc(C2=NN(C3CCOCC3)C(=O)[C@H]3CC=CC[C@@H]23)cc1OCC (relative stereo)
98.5 to 100 °C | CCC1(CC)OC(=O)c2cc([N+](=O)[O-])ccc21
169 to 171 °C | CCCCc1oc2ccccc2c1-c1ncc(-c2ccc3cc(OC)ccc3c2)o1
266 to 268 °C | NC1Cc2ccccc2CN(CC(=O)O)C1=O (stereo not given)
50 to 52 °C | CCCOc1ccc2c(c1)C(=O)CCO2
138 to 139 °C | Cc1oc(-c2ccccc2)nc1CCOc1ccc(C[C@@H](C(=O)O)N2CCN(c3cccc(Cl)c3)CC2)cc1
139 to 140 °C | COc1ccc(C2(O)OC(=O)C(c3cc(OC)c4c(c3)OCO4)=C2CC2CCCC2)cc1 (stereo not given)
125 to 126 °C | COc1ccc(CCNC(=O)N(C)O)cc1OCc1ccccc1
106 to 107 °C | CC(ON=Cc1c(F)cccc1Cl)C(=O)O (stereo not given)
97 to 98 °C | CCCCCC(O)c1cccc(OCc2cccc(C(N)=O)c2)c1 (stereo not given)
77 to 79.5 °C | CCC(=O)c1ccc(OC)c(OC(=O)CCl)c1
105 to 107 °C | CCOC(=O)C1(C(=O)Nc2cc(Cl)c(Cl)cc2C)CC1
134 to 136 °C | CC(C)(C(=O)O)c1ccc(OCCCc2cc3c(cc2O)CC(CCc2ccccc2)O3)cc1 (stereo not given)
221 °C | C#Cc1cnc(OCCC)c(-c2nc3c(CC)n(C4CCN(C(=O)OC(C)(C)C)CC4)nc3c(=O)[nH]2)c1
96 to 98 °C | O=Cc1c(Cl)ccc(C2OCCO2)c1Cl
193 to 194 °C | CCCc1nn(C)c2c(=O)[nH]c(-c3cc(-n4ccnc4)ccc3OCC)nc12
255 to 257 °C | CCOc1cc2nc[nH]c(=O)c2cc1OCC
109 to 110 °C | CCOC(=O)Cn1c(=S)c2ccccc2n(Cc2ccc(Br)cc2F)c1=O
127 to 128 °C | O=c1[nH]c(=O)n(CCCCCl)c2ccccc12
109 to 110 °C | COc1ccc(CN2C(=O)[C@@H](NC(=O)Cc3ccccc3)[C@H]2COS(=O)(=O)c2ccc(C)cc2)c(OC)c1 (relative stereo)
141 to 142 °C | CC(C)(C)OC(=O)N1CCN(c2ccc([N+](=O)[O-])cc2C#N)CC1
